Here are results for one compound from US20150291565A1, “INDOLE COMPOUNDS AND THEIR USE AS ANTIMICROBIALS” (Memorial Sloan-Kettering Cancer Center, priority 2012, published 2015).

Several values for one entry are separate records, joined by “and”; a condition that tells them apart may be missing. Equal values may be shown once.

Assay [1] concerns S. aureus (MRSA) (ATCC33591). Kind of assay: Septicemia survival model in neutropenic CD1 mice, MRSA. The assay is classed as in vivo. Particulars: 100 mg/kg BID SC.
Assay [2] relates to S. pneumoniae (ATCC 6303). Kind of assay: Thigh infection model in neutropenic CD1 mice, S. pneumoniae. The settings on record: 100 mg/kg BID SC, 24 hours; for Log reduction: vs vehicle, 100 mg/kg.
The subject of assay [3] is methicillin-resistant S. aureus (ATCC 33591). Kind of assay: Thigh infection model in neutropenic CD1 mice, MRSA. Particulars: 100 mg/kg BID SC, 24 hours.

Take `CN[C@H](CC(C)C)C(=O)N[C@H]1C(=O)N[C@@H](CC(N)=O)C(=O)N[C@H]2C(=O)N[C@H]3C(=O)N[C@H](C(=O)N[C@H](C(=O)O)c4cc(O)cc(O)c4-c4cc3ccc4O)[C@H](O)c3ccc(c(Cl)c3)Oc3cc2cc(c3O[C@@H]2O[C@H](CO)[C@@H](O)[C@H](O)[C@H]2O[C@H]2C[C@](C)(N)[C@H](O)[C@H](C)O2)Oc2ccc(cc2Cl)[C@H]1O` [Vancomycin, reference compound]: in assay [1], the “Percent Survival Day 1” value came to 100%, the “Percent Survival Day 2” value was found to be 100%, the “Percent Survival Day 3” value is recorded as 100% and the “Percent Survival Day 4” value turned out to be 80%. In assay [1], the “Percent Survival Day 5” value is recorded as 80%, the “Percent Survival Day 6” value is 80% and the “Percent Survival Day 7” value is recorded as 80%. Besides, in assay [2], the “Mean bacterial tissue burden (log10/thigh)” value is given as 3.4862 log10/thigh and the Log reduction turned out to be 5.6265 Log. Besides, the Log reduction in assay [2] (listed as vancomycin) was determined as 5.63 Log. The “Mean bacterial tissue burden (log10/thigh)” value in assay [3] amounted to 5.0033 log10/thigh. In addition, the Log reduction in assay [3] (vs vehicle, 100 mg/kg) is 3.45 Log and 3.4455 Log.
